Measurements as given in paper PMC13254535, “The RecBCD complex interacts directly with the DNA sliding clamp in Escherichia coli” (Nucleic Acids Research, 2026).
Residues, ends and D or L forms follow the SMILES beside them.

What was measured:
Type in all cases: binding
Set-up in all cases: made in house
β-clamp [1] = target: T1, β-clamp (Escherichia coli, UniProt P0A988); test: Saturation transfer difference (STD)-NMR of peptides with β-clamp; conditions: 150 µM peptide, 1.5 µM β-clamp; 25°C; 20 mM sodium phosphate, 100 mM NaCl, 5 mM DTT, 0.3% DMSO, 5% D2O, pH 7.4; 600 MHz
T1 sequence (P0A988 whole entry): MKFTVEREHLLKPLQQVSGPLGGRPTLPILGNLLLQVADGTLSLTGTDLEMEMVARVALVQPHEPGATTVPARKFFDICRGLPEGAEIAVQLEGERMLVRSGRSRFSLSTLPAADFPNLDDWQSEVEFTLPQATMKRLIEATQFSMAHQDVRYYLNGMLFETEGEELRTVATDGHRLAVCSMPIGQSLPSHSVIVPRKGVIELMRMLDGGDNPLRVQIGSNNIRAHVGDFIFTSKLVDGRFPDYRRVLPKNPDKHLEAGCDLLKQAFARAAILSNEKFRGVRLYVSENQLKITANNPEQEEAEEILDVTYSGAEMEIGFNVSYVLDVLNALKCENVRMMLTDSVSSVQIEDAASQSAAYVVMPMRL

β-clamp [2] = target: T1, β-clamp; test: Isothermal titration calorimetry (ITC), β-clamp titrated into peptide; conditions: 25°C; pH 7.4; one-site model; n = 3; affected by inaccurate peptide concentration and methionine oxidation
Description: (§1) Unlabeled and ^2H, ^13C, ^15N-labeled E. coli β-clamp was expressed and purified as previously described. The β-clamp concentration was determined by absorbance at 280 nm measured on a NanoDrop ND-1000 spectrophotometer (Thermo Fisher Scientific Inc.) and using an extinction coefficient calculated by the Expasy ProtParam web tool (https://web.expasy.org/protparam/). All β-clamp concentrations are listed as the protomer concentration. The peptides were readily soluble at micromolar concentration, although at high micromolar concentrations, we cannot rule out the presence of aggregates.
Unlabeled β-clamp was buffer-exchanged into 20 mM sodium phosphate, 100 mM NaCl, 1 mM tris(2-carboxyethyl)phosphine (TCEP), pH 7.4 using a 15-ml spin filter (10 000 MWCO) (Millipore, Darmstadt, Germany). DMSO was added to the β-clamp sample to a final concentration of 0.02% (v/v). RecB nuclease motif peptide ([…]) (dissolved in 100% DMSO) was diluted into the same buffer as above, with a final DMSO concentration of 0.02% (v/v). […] The isothermal titration calorimetry (ITC) experiments were repeated three times and were recorded at 25°C on a Malvern MicroCal PEAQ-ITC instrument (Malvern, Worcestershire, United Kingdom) using a stir speed of 750 rpm. […]

β-clamp [3] = target: T1, β-clamp; test: 2D TROSY-1H-15N-HSQC chemical shift perturbation of β-clamp; conditions: 140 µM 2H,13C,15N-labeled β-clamp, 700 µM peptide (five-fold molar excess); 37°C; 20 mM sodium phosphate, 100 mM NaCl, 5 mM DTT, 2% DMSO, pH 7.4
Description: as §1
2D TROSY-^1H-^15N-HSQC (Two-Dimensional Transverse Relaxation Optimized Spectroscopy Heteronuclear Single Quantum Coherence experiment correlating ^1H and ^15N nuclei) spectra were recorded of 140 µM ^2H, ^13C, ^15N-labeled β-clamp with and without the addition of 700 µM RecB nuclease motif peptide ([…]) in 20 mM sodium phosphate, 100 mM NaCl, 5 mM DTT, 5% (v/v) D2O, 125 µM DSS, 2% (v/v) DMSO, pH 7.4. […] The samples were transferred to 5-mm Shigemi tubes, and the NMR spectra were recorded at 37°C on a Bruker Avance III 750 MHz spectrometer equipped with a cryoprobe. […] The spectra were processed in Topspin (Bruker) and analyzed in CcpNmr Analysis. […] Chemical shift perturbations (CSPs) were calculated using the following equation [57]: […]

CSCC[C@H](NC(=O)[C@H](CCC(=O)O)NC(=O)[C@@H](NC(=O)[C@H](CCC(N)=O)NC(=O)[C@H](CCCCN)NC(C)=O)C(C)C)C(=O)N[C@@H](CCC(=O)O)C(=O)N[C@@H](Cc1ccccc1)C(=O)N[C@@H](Cc1ccc(O)cc1)C(N)=O [QVEMEF] (Ac-KQVEMEFY-NH2)
STD-NMR binding (β-clamp [1]): shows a distinct STD signal, indicating specific interaction
N-value (stoichiometry) (β-clamp [2]): 0.39 ± 0.02
chemical shift perturbations (CSPs) of β-clamp residues (β-clamp [3]): The largest CSPs localized to residues surrounding the canonical CBM binding pocket, including L177, Y244, V247, I317, S345, Q348, V361, M364, and R365
